Experimental data as given in ChEMBL document CHEMBL4814065, “Taurultams incorporating arylsulfonamide: First in vitro inhibition studies of α-, β- and γ-class Carbonic Anhydrases from Vibrio cholerae and Burkholderia pseudomallei” (Eur J Med Chem, 2021).

Key:
[1] = Inhibition of Burkholderia pseudomallei beta carbonic anhydrase preincubated with enzyme for 15 mins by phenol red-based stopped-flow CO2 hydration assay
[2] = Selectivity index, ratio of Ki for Burkholderia pseudomallei gamma carbonic anhydrase to Ki for human carbonic anhydrase 2
[3] = Selectivity index, ratio of Ki for Vibrio cholerae gamma carbonic anhydrase to Ki for human carbonic anhydrase 2
[4] = Inhibition of Vibrio cholerae gamma carbonic anhydrase preincubated with enzyme for 15 mins by phenol red-based stopped-flow CO2 hydration assay
[5] = Selectivity index, ratio of Ki for Vibrio cholerae beta carbonic anhydrase to Ki for human carbonic anhydrase 2
[6] = Inhibition of Vibrio cholerae alpha carbonic anhydrase preincubated with enzyme for 15 mins by phenol red-based stopped-flow CO2 hydration assay
[7] = Inhibition of Burkholderia pseudomallei gamma carbonic anhydrase preincubated with enzyme for 15 mins by phenol red-based stopped-flow CO2 hydration assay
[8] = Selectivity index, ratio of Ki for Vibrio cholerae alpha carbonic anhydrase to Ki for human carbonic anhydrase 2
[9] = Inhibition of Vibrio cholerae beta carbonic anhydrase preincubated with enzyme for 15 mins by phenol red-based stopped-flow CO2 hydration assay
[10] = Selectivity index, ratio of Ki for Burkholderia pseudomallei beta carbonic anhydrase to Ki for human carbonic anhydrase 2

SMILES	Ki [1] [nM]	Ratio Ki [2]	Ratio Ki [3]	Ki [4] [nM]	Ratio Ki [5]	Ki [6] [nM]	Ki [7] [nM]	Ratio Ki [8]	Ki [9] [nM]	Ratio Ki [10]
NS(=O)(=O)c1ccc(CCN2CN(Cc3c(F)cccc3F)CCS2(=O)=O)cc1	393	0.3	156	8820	16.9	8	19.5	0.14	952	7
NS(=O)(=O)c1ccc(N2CCCCS2(=O)=O)cc1	–	–	–	–	–	–	> 50000	–	–	–
NS(=O)(=O)c1ccc(N2CN(Cc3c(F)c(F)c(F)c(F)c3F)CCS2(=O)=O)cc1	81.8	–	–	8110	–	8.5	824	–	4440	–
NS(=O)(=O)c1ccc(N2CN(Cc3cccc(Cl)c3)CCS2(=O)=O)cc1	416	–	–	6770	–	37.7	68.7	–	3970	–
